How the values were obtained:
[1] = test system: Human Umbilical Vein Endothelial Cells (HUVEC); test: Endothelial cell attachment with CPAs without freezing (FIG. 9); format: cell-based; conditions: 100 mM 3-OMG, p=0.6995
Description: Prior to coating with endothelial cells, microchannels were sonicated briefly (3 min in isopropanol; Branson 200, Branson Ultrasonics), and then rinsed with PBS. Channels were then coated with 1 mg/mL fibronectin (dissolved in sterile PBS, total of 10 μl) and incubated for 60 min at 37° C. After a priming step, HUVEC cells were trypsinized, counted, and re-suspended in EBM-2 complete media (˜10.0×10^6 cells per mL). Cells were subsequently introduced to the cell seeding port and incubated at 37° C. 5% CO2 for 30 min (FIG. 1A). Final constriction diameters of cellularized microchannels varied from ˜10 to 20 μm across the lengths of individual channels due to the presence of cellular nuclei along channel walls. […]
Cell attachment values were quantified by counting the total number of Hoechst positive cells (i.e. total number of cell nuclei) and dividing by the total number of channels (each device has maximum of 16 channels). Membrane integrity was quantified by counting the number of propidium iodide positive cells divided by the total number of Hoechst positive cells. Cell attachment and membrane integrity are expressed as box-and-whiskers plots showing median, interquartile range, maxima, and minima (n=4-8). […]

[2] = test system: Human Umbilical Vein Endothelial Cells (HUVEC); test: Cryostage freeze-thaw of endothelial cell-coated microchannels (cell attachment, membrane integrity); format: cell-based; conditions: with Snomax
Description: Prior to coating with endothelial cells, microchannels were sonicated briefly (3 min in isopropanol; Branson 200, Branson Ultrasonics), and then rinsed with PBS. Channels were then coated with 1 mg/mL fibronectin (dissolved in sterile PBS, total of 10 μl) and incubated for 60 min at 37° C. After a priming step, HUVEC cells were trypsinized, counted, and re-suspended in EBM-2 complete media (˜10.0×10^6 cells per mL). Cells were subsequently introduced to the cell seeding port and incubated at 37° C. 5% CO2 for 30 min (FIG. 1A). Final constriction diameters of cellularized microchannels varied from ˜10 to 20 μm across the lengths of individual channels due to the presence of cellular nuclei along channel walls. Coated microchannels were then fed under continuous gravity flow using a pipet tip containing media and inserted into the delivery port to generate flow in the reverse direction from loading (FIG. 1A). Pipet tips (200 μl) filled with media provided an initial hydrostatic head of 2.5 cm H2O. Cells incubated at 37° C. 5% CO2 up to 3 days with daily replacement of tips with filled media before proceeding to experimentation. […] Control, unfrozen microchannels were stained with Calcein green (1:1000), Hoescht (H3570; 1:1000 v:v), and propidium iodide (4 μg/mL) for 20 min and imaged, while microchannels imaged prior to experimentation/freezing were only stained with Calcein green (1:1000). These experimental microchannels were subsequently stained after experimentation/freezing with Hoescht (H3570; 1:1000 v:v), and propidium iodide (4 μg/mL).
Endothelial cell-coated microchannels were prepared, and placed on the silver block of a FDCS196 cryostage (Linkam Scientific Instruments Ltd, London, UK), the temperature of which was controlled by the TMS 94 temperature controller with the accuracy of ±0.1° C. Microchannels bonded to glass slides were cut into individual devices so they would fit on the silver block of the Linkam cryostage. A PixeLINK PL-A662 camera (PixeLINK, Ottawa, Canada) was used to visualize ice formation and propagation. In all cases, ice nucleation temperature was recorded and ice propagation throughout the device was confirmed by direct visual inspection (FIG. 7). Prior to freezing, endothelial cell-coated microchannels in the 3-O-methyl-D-glucopyranose (3-OMG) experimental group were incubated with EBM-2 complete media supplemented with either 50 or 100 mM 3-OMG at 37° C. to promote intracellular transport of the glucose analog. Supplementation of 3-OMG in the basal media and incubation at 37° is an effective method for intracellular delivery of 3-OMG. […] Snomax (Snomax International, Englewood, CO, USA) was used as the model ice nucleator in this study (1 mg/mL). Microchannels were perfused with PBS containing ice nucleators and/or cryoprotectant agents for 10 min prior to beginning the cooling profile. During the freezing experiment, the temperature was first cooled at 10° C./min to 4° C. After thermal stabilization, a cooling rate of 1° C./min was applied until reaching the holding temperature. […] For microchannels which contained Snomax, ice was observed <−6° C. in all cases, and channels were cooled to −6, −10, or −20° C. At the lowest holding temperature, microchannels were held for 3-5 min before a rapid rewarming at +30° C./min (FIG. 1C). After rewarming, microchannels were stained with Hoescht (nuclear) and propidium iodide (membrane integrity) dissolved in EBM-2 complete media for 20 min and imaged, in which the cell membrane integrity was used as a discriminator of live and dead cells.
Cell attachment values were quantified by counting the total number of Hoechst positive cells (i.e. total number of cell nuclei) and dividing by the total number of channels (each device has maximum of 16 channels). Membrane integrity was quantified by counting the number of propidium iodide positive cells divided by the total number of Hoechst positive cells. […]

[3] = test system: livers (parenchyma and endothelial cells)
Description: In the experiments, endothelial damage occurred as a result of the loading process of high viscosity solutions. This liver was not frozen and was only subjected to the loading protocol with 10% glycerol as the main cryoprotectant.
A stepwise loading protocol was preformed to address this issue. The liver was sampled for histology and endothelial analysis immediately after CPA loading. Thus, all livers presented were not frozen/stored and had the independent damage of the loading protocol only. Furthermore, the loading protocol was redesigned with special consideration for the impact of dramatic changes in osmolality between distinct phases of CPA loading. Thus, a step-wise loading protocol was finalized.
The stepwise loading protocol was tested in the following way: (1) “Loading 1” refers to the 3-OMG loading phase which is essential for intracellular delivery of this CPA. 3-OMG is loaded using the subnormothermic cocktail containing a William's E media base supplemented with heparin, hydrocortisone, insulin, etc.
First, livers were continuously perfused with either 50 or 100 mM 3-OMG at subnormothermic temperatures for 60 minutes (“Loading 1”) and were immediately sampled for histology.
After the experiment was stopped, livers were sampled for histology.

[4] = pH change of storage solution on freezing (phenol red); format: physicochemical; conditions: phenol red in storage solution
Excerpt: The pH can change dramatically as a function of freezing and holding temperature. Depending on the components of the storage solution, the biologic sample can be exposed to an acidic or a basic environment. These changes can be determined by adding phenol red to the storage solution. […] This pH change is relevant and can affect the preservation media. To counter these fluctuations in pH, the goal is to introduce “counter ions” which can balance the pH change.

For `CO[C@H]1[C@H](O)[C@@H](CO)OC(O)[C@@H]1O` (stereo partly drawn) [3-OMG, 3-O-methyl-D-glucopyranose], the “cell attachment versus unfrozen controls without CPAs” value [1] was “no statistical significant difference”, the cell attachment ([2]; 50 mM 3-OMG, Thold −6° C.) was 33.2±9.1 cells/lane and the “percent PI positive cells (membrane integrity)” value (from here on “percent PI positive cells”) ([2]; 50 mM 3-OMG, Thold −6° C.) was 7.4±3.7%. For the same molecule, the cell attachment ([2]; 50 mM 3-OMG, Thold −10° C.) was 15.1±8.2 cells/lane, the “percent PI positive cells” value ([2]; 50 mM 3-OMG, Thold −10° C.) was 38.1±7.5% and the cell attachment ([2]; 100 mM 3-OMG, Thold −6° C.) was 31.4±6.6 cells/lane. The “percent PI positive cells” value ([2]; 100 mM 3-OMG, Thold −6° C.) was 7.3±2.8%, the cell attachment ([2]; 100 mM 3-OMG, Thold −10° C.) was 33.6±8.8 cells/lane and the “percent PI positive cells” value ([2]; 100 mM 3-OMG, Thold −10° C.) was 20.5±12.4%.
With `OCC(O)CO` [glycerol] the “cell death after loading that was not stepwise (FIG. 15A)” value [3] was “majority of cell death evident in endothelial cells”.
With `O=C([O-])O.[Na+]` [sodium bicarbonate] the “pH change of solution as the result of freezing” value [4] was “became basic”.

Reference: patent US12058996B2, “High subzero cryopreservation” (The General Hospital Corporation, priority 2017, dated 2024)
